Assay results taken from ChEMBL document CHEMBL1124752, “Cyclobut-A and cyclobut-G: broad-spectrum antiviral agents with potential utility for the therapy of AIDS” (J Med Chem, 1990).
Values after ≈ are worked out from the molar mass of the structure shown.

Experiments:
[1] = test system: Human immunodeficiency virus 1; assay: Tested for the determination of percentage protection at 100 uM against HIV-1 in ATH8 cells; format: functional, ATH-8
[2] = test system: Human immunodeficiency virus 1; assay: Tested for the determination of percentage protection at 10 uM against HIV-1 in ATH8 cells; format: functional, ATH-8
[3] = test system: Human immunodeficiency virus 1; assay: Tested for the determination of percentage protection at 1 uM against HIV-1 in ATH8 cells; format: functional, ATH-8
[4] = test system: Human immunodeficiency virus 1; assay: Tested for the determination of percentage protection at 50 uM against HIV-1 in ATH8 cells; format: functional, ATH-8
[5] = test system: Human betaherpesvirus 5; assay: In vitro antiviral activity tested against herpesvirus, HCMV, EC strain by plaque reduction assay in human foreskin fibroblasts; format: functional
[6] = test system: Human betaherpesvirus 5; assay: In vitro antiviral activity tested against herpesvirus, HCMV, LA strain by plaque reduction assay in human foreskin fibroblasts; format: functional
[7] = test system: Human betaherpesvirus 5; assay: In vitro antiviral activity tested against herpesvirus, HCMV, AD169 strain by plaque reduction assay in human foreskin fibroblasts; format: functional
[8] = test system: Human betaherpesvirus 5; assay: In vitro antiviral activity tested against herpesvirus, HCMV, CH strain by plaque reduction assay in human foreskin fibroblasts; format: functional
[9] = test system: Human betaherpesvirus 5; assay: In vitro antiviral activity tested against herpesvirus, HCMV, Davis strain by plaque reduction assay in human foreskin fibroblasts; format: functional
[10] = test system: Human immunodeficiency virus 1; assay: Tested for the determination of percentage toxicity at 1 uM against HIV-1 in ATH8 cells; format: organism-based; settings: human immunodeficiency virus 1, ath-8, 1 µM
[11] = test system: Human immunodeficiency virus 1; assay: Tested for the determination of percentage toxicity at 50 uM against HIV-1 in ATH8 cells; format: organism-based; settings: human immunodeficiency virus 1, ath-8, 50 µM
[12] = test system: Human alphaherpesvirus 1; assay: Tested for the effective dose required to inhibit HSV-1 in infected mice; format: functional
[13] = test system: Human alphaherpesvirus 1; assay: Tested for mean day to death of nonsurvivors against HSV-1 infection in mice at 4.7 mg/kg/day; format: functional
[14] = test system: Human alphaherpesvirus 1; assay: In vitro antiviral activity against herpesvirus, HSV-1, E-377 strain by plaque reduction assay in human foreskin fibroblasts; format: functional
[15] = test system: Human immunodeficiency virus 1; assay: Tested for the determination of percentage toxicity at 10 uM against HIV-1 in ATH8 cells; format: organism-based; settings: human immunodeficiency virus 1, ath-8, 10 µM
[16] = test system: Human alphaherpesvirus 1; assay: Number of survivors per number of HSV-1 infected mice treated with 4.7 mg/kg/day; 6/10; format: functional
[17] = test system: Human alphaherpesvirus 2; assay: Number of survivors per number of HSV-2 infected mice treated with 31.2 mg/kg/day; 9/10; format: functional
[18] = test system: Human alphaherpesvirus 2; assay: Tested for mean day to death of nonsurvivors against HSV-2 encephalitis in mice at 31.2 mg/kg/day; format: functional
[19] = test system: Human alphaherpesvirus 2; assay: Tested for mean day to death of nonsurvivors against HSV-2 encephalitis in mice at 7.8 mg/kg/day; format: functional
[20] = test system: Human alphaherpesvirus 2; assay: Number of survivors per number of HSV-2 infected mice treated with 125 mg/kg/day; 10/10; format: functional
[21] = test system: Human alphaherpesvirus 2; assay: Number of survivors per number of HSV-2 infected mice treated with 7.8 mg/kg/day; 5/10; format: functional
[22] = test system: Human alphaherpesvirus 2; assay: Tested for the effective dose required to inhibit HSV-2 encephalitis in infected mice; format: functional
[23] = test system: Human alphaherpesvirus 2; assay: In vitro antiviral activity tested against herpesvirus, HSV-2, HEET strain by plaque reduction assay in human foreskin fibroblasts; format: functional
[24] = test system: Human alphaherpesvirus 2; assay: In vitro antiviral activity tested against herpesvirus, HSV-2, JEN strain by plaque reduction assay in human foreskin fibroblasts; format: functional
[25] = test system: Human alphaherpesvirus 2; assay: In vitro activity tested against herpesvirus, HSV-2, MS strain by plaque reduction assay in human foreskin fibroblasts; format: functional
[26] = test system: Human immunodeficiency virus 1; assay: Tested for the determination of percentage toxicity at 100 uM against HIV-1 in ATH8 cells; format: organism-based; settings: human immunodeficiency virus 1, ath-8, 100 µM
[27] = test system: Human alphaherpesvirus 1; assay: Number of survivors per number of HSV-1 infected mice treated with 18.7 mg/kg/day; 10/10; format: functional
[28] = test system: Human alphaherpesvirus 1; assay: Number of survivors per number of HSV-1 infected mice treated with 75 mg/kg/day; 10/10; format: functional
[29] = test system: Human alphaherpesvirus 2; assay: In vitro antiviral activity tested against herpesvirus, HSV-2, X-79 strain by plaque reduction assay in human foreskin fibroblasts; format: functional
[30] = test system: Murid betaherpesvirus 1; assay: Tested for the effective dose required to inhibit systemic MCMV in infected mice; format: functional
[31] = test system: Murid betaherpesvirus 1; assay: Number of survivors per number of systemic MCMV infected mice treated with 33.4 mg/kg/day; 14/15; format: functional
[32] = test system: Murid betaherpesvirus 1; assay: In vitro antiviral activity tested against herpesvirus, MCMV, Smith strain by plaque reduction assay in mouse embryo fibroblasts; format: functional
[33] = test system: Murid betaherpesvirus 1; assay: Tested for mean day to death of nonsurvivors against systemic MCMV infection in mice at 11.2 mg/kg/day; format: functional
[34] = test system: Murid betaherpesvirus 1; assay: Tested for mean day to death of nonsurvivors against systemic MCMV infection in mice at 3.8 mg/kg/day; format: functional
[35] = test system: Murid betaherpesvirus 1; assay: Tested for mean day to death of nonsurvivors against systemic MCMV infection in mice at 33.4 mg/kg/day; format: functional
[36] = test system: Murid betaherpesvirus 1; assay: Number of survivors per number of systemic MCMV infected mice treated with 100 mg/kg/day; 15/15; format: functional
[37] = test system: Murid betaherpesvirus 1; assay: Number of survivors per number of systemic MCMV infected mice treated with 11.2 mg/kg/day; 14/15; format: functional
[38] = test system: Murid betaherpesvirus 1; assay: Number of survivors per number of systemic MCMV infected mice treated with 3.8 mg/kg/day; 4/15; format: functional
[39] = test system: Human alphaherpesvirus 3; assay: In vitro antiviral activity tested against herpesvirus, VZV, Ellen strain by plaque reduction assay in human foreskin fibroblasts; format: functional
[40] = test system: Human alphaherpesvirus 3; assay: In vitro antiviral activity tested against herpesvirus, VZV, OKA strain by plaque reduction assay in human foreskin fibroblasts; format: functional
[41] = species: Homo sapiens; assay: The drug concentration was determined to reduce proliferation of human foreskin fibroblasts to 50% of untreated controls in proliferation assay; format: functional; settings: read-out: ID50 (the source's name)
[42] = read-out: ED50 (the source's name)
[43] = read-out: ID50 (the source's name)

`Nc1ncnc2c1ncn2[C@@H]1C[C@H](CO)[C@H]1CO` showed a Protection [1] of 52%, a Protection [2] of 63% and a Protection [3] of 47%. The Protection [4] was 48%, the EC50 [5, 42] was 2.2 µg/mL (≈ 8.83 µM) and the IC50 [5, 43] was > 100 µg/mL. For the same compound, the EC50 [6, 42] was 1 µg/mL (≈ 4.01 µM), the IC50 [6, 43] was > 100 µg/mL and the EC50 [7, 42] was 3.7 µg/mL (≈ 14.8 µM). The IC50 [7, 43] was > 100 µg/mL, the EC50 [8, 42] was 0.9 µg/mL (≈ 3.61 µM) and the IC50 [8, 43] was > 100 µg/mL. For the same compound, the EC50 [9, 42] was 0.9 µg/mL (≈ 3.61 µM), the IC50 [9, 43] was > 100 µg/mL and the Cytotoxity [10] was 11%. For the same compound, the Cytotoxity [11] was 42%, the ED50 [12] was < 4.7 mg/kg/day and the MDD [13] was 7.5. The EC50 [14, 42] was 1 µg/mL (≈ 4.01 µM), the IC50 [14, 43] was > 100 µg/mL and the Cytotoxity [15] was 32%. For the same compound, the Survivors / treated [16] was 6, the Survivors / treated [17] was 9 and the MDD [18] was 10. It also gave an MDD [19] of 10.8, a Survivors / treated [20] of 10 and a Survivors / treated [21] of 5. For the same compound, the ED50 [22] was 9.7 mg/kg/day, the EC50 [23, 42] was 2.2 µg/mL (≈ 8.83 µM) and the IC50 [23, 43] was > 100 µg/mL. For the same compound, the EC50 [24, 42] was 2.3 µg/mL (≈ 9.23 µM), the IC50 [24, 43] was > 100 µg/mL and the EC50 [25, 42] was 1.6 µg/mL (≈ 6.42 µM). For the same compound, the IC50 [25, 43] was > 100 µg/mL, the Cytotoxity [26] was 44% and the Survivors / treated [27] was 10. The Survivors / treated [28] was 10, the EC50 [29, 42] was 1.8 µg/mL (≈ 7.22 µM) and the IC50 [29, 43] was > 100 µg/mL. For the same compound, the ED50 [30] was 2.7 mg/kg/day, the Survivors / treated [31] was 14 and the EC50 [32, 42] was 0.05 µg/mL (≈ 0.201 µM). The IC50 [32, 43] was > 100 µg/mL, the MDD [33] was 6 and the MDD [34] was 5.3. For the same compound, the MDD [35] was 5, the Survivors / treated [36] was 15 and the Survivors / treated [37] was 14. The Survivors / treated [38] was 4, the EC50 [39, 42] was 2.1 µg/mL (≈ 8.42 µM) and the IC50 [39, 43] was > 100 µg/mL. For the same compound, the EC50 [40, 42] was 2 µg/mL (≈ 8.02 µM), the IC50 [40, 43] was > 100 µg/mL and the IC50 [41] was 7.7 µg/mL (≈ 30.9 µM).
